Laboratory results published in patent US20230352136A1, “SYSTEMS AND METHODS TO EVALUATE DRUG-INDUCED GASTROINTESTINAL DYSRHYTHMIA” (The Chinese University of Hong Kong, priority 2022, published 2023).

Tested on: ileum pacemaker potentials
Assay: MEA recording of pacemaker potentials (slow waves), isolated ileum
Format: cell-based, Suncus murinus
Conditions: ileal tissues
Procedure: Pacemaker potentials were recorded extracellularly on a 60-channel MEA system using full-thickness GI segments isolated from Suncus murinus. Basic slow-wave parameters, including frequency, amplitude, slope, period, and power partitions, were derived. Signal regularity was also evaluated using detrended fluctuation analysis and sample entropy analysis.
Electrical recordings were taken after the animals were euthanised by carbon dioxide asphyxiation. […] The mesentery was removed, and the lumen contents were flushed with Krebs' medium. Segments (−1 cm) of duodenum, ileum, and colon were then isolated, but the stomach was kept intact. All tissue segments and the entire stomach were incubated in Krebs' medium containing nifedipine (1 μM; Sigma Aldrich, St Louis, MO, USA) for 15 min to inhibit smooth muscle activity. Pacemaker potentials were recorded using an MEA platform (MEA1060 1200×; Multichannel Systems, Reutlingen, Germany) as previously described. Briefly, tissues were placed onto the electrode field of an MEA chip (60-channel, 8×8 configuration, 3D-tip-shaped electrodes with a height of […] and an inter-electrode distance of 200 μm; Ayanda Biosystems SA, Lausanne, Switzerland). Intestinal segments were aligned horizontally to the recording electrode field, while the stomach was oriented with the antrum facing the recording electrode field. The chamber temperature was maintained at 37° C. and the sampling frequency was 1 kHz. […] All data were recorded and saved using MC_Rack (v 4.6.2, Multichannel Systems).
Data analysis included basic slow-wave feature extraction using a custom automated program. […] The time point of drug administration was automatically identified based on the signal disturbance. The period of signal disturbance (20 s before and 40 s after the peak of the disturbance) was excluded from the analysis. Data were filtered using a passband between 0.1 Hz and 1 Hz and a stopband between 0.01 Hz and 2 Hz. The basic slow-wave features extracted were similar to those extracted in the inventors' previous studies. However, instead of using several templates and scripts written in Microsoft Excel and Spike 2, a one-step automatic and blinded MATLAB programme was used for data analysis. There were four major changes to the data analysis process as compared to the inventors' previous studies. First, auto-identification of the drug disturbance time point was used, rather than manual identification. Second, standardised signal filters were built in MATLAB to match the entire data analysis pipeline. […] Frequency partitioning was performed by segmenting the power spectrum of 0-50 cpm into the following four segments: brady-rhythm (within the range 2-[DF−1] cpm), normal-rhythm ([DF±1] cpm), tachy-rhythm (within the range [DF+1]-40 cpm), and out-of-range frequencies (<2 cpm and >40 cpm). Third, waveforms were identified using the MATLAB ‘findpeaks’ function, with a minimum peak height of […] at baseline and […] after drug treatment, with a step time of 5.4 s for the intestine and 12 s for the stomach. The average peak-to-peak amplitude, slope, and period were derived for all detected waveforms. Fourth, propagation velocity was derived using phase-difference measurements, based on the auto-select seed electrode with the highest percentage of normal rhythms.
Dominant activation pattern identification included a phase-based analysis performed as previously described (Liu et al., 2021). Briefly, high-frequency spikes with amplitudes greater than […] were masked. Continuous frequencies were identified using continuous wavelet transformation, and the transformed data were used to plot spectrograms. […] High quality data were subjected to Hilbert transformation to identify the phase and frequency of the signals. Individual activation times were clustered using k-means clustering every 20 s and major activation patterns were grouped using a structural similarity index.

`Cl.NCCc1ccc(O)c(O)c1` [dopamine, 3-Hydroxytyramine hydrochloride] was tested, and the “DFA fluctuation function (larger scale 26-46)” value (100 nM, baseline 1.71±0.17, p<0.05, n=6) was 1.55±0.13, the “DFA fluctuation function (smaller scale 3-25)” value (100 nM, baseline 2.35±0.14, p<0.05, n=6) was 2.28±0.11 and the waveform period (100 nM, baseline 2.66±0.40, p<0.05, n=7) was 3.73±1.05. For the same compound, the “percentage of dominant patterns (based on post-treatment data, FIG. 3E), second pattern” value (100 nM, baseline 15.6±10.3, p<0.05, n=7) was 4.2±4.2%, the “percentage of dominant patterns (based on post-treatment data, FIG. 3E), third pattern” value (100 nM, baseline 16.8±6.6, p<0.01, n=7) was 3.0±2.6% and the “percentage of dominant baseline activation patterns, third pattern” value (100 nM, baseline 17.2±4.8, p<0.0001, n=7) was 2.2±2.6%. For the same compound, the “percentage of dominant baseline activation patterns, second pattern” value (100 nM, baseline 21.5±1.7, p<0.0001, n=7) was 2.6±1.6%, the “average frequency (AF)” value (100 nM, baseline 23.5±3.0, p<0.05, n=7) was 19.4±3.6 cpm and the percentage of brady-rhythms (100 nM, baseline 31.8±11.7, p<0.05, n=7) was 60.0±26.0%. The “percentage of dominant baseline activation patterns, first pattern” value (100 nM, baseline 32.8±5.7, p<0.01, n=7) was 3.8±4.5%, the “percentage of normal rhythms” value (100 nM, baseline 46.1±5.6, p<0.01, n=7) was 4.8±17.0% and the “amplitude of slow waves” value (100 nM, baseline 165.2±20.5, p<0.001, n=7) was 119.2±20.0 μV. The slope of waveforms (100 nM, baseline 257.5±59.8, p<0.01, n=7) was 160.1±42.0 μV s^−1, the “dominant power (DP) of slow waves” value (100 nM, baseline 780.4±276.9, p<0.001, n=7) was 177.5±83.0 μV^2 and the “DFA fluctuation function (larger scale 26-46)” value (1 μM, baseline 1.78±0.24, p<0.05, n=8) was 1.64±0.28. The “number of groups of activation patterns” value (1 μM, baseline 6.3±0.8, p<0.05, n=7) was 7±0.8, the “percentage of dominant patterns (based on post-treatment data, FIG. 3E), first pattern” value (1 μM, baseline 8.9±9.0, p<0.01, n=6) was 31.4±13.7% and the percentage of brady-rhythms (1 μM, baseline 27.5±7.8, p<0.05, n=7) was 46.3±22.7%. The “percentage of dominant baseline activation patterns, first pattern” value (1 μM, baseline 35.2±6.0, p<0.001, n=6) was 13.0±6.7%, the “percentage of normal rhythms” value (1 μM, baseline 50.6±10.8, p<0.01, n=7) was 24.5±11.8% and the “amplitude of slow waves” value (1 μM, baseline 187.1±76.9, p<0.01, n=7) was 138.0±66.2 μV. For the same compound, the slope of waveforms (1 μM, baseline 300.9±117.5, p<0.01, n=7) was 204.4±91.9 μV s^−1, the “dominant power (DP) of slow waves” value (1 μM, baseline 1,070.5±745.1, p<0.05, n=7) was 460.3±297.0 μV^2 and the “representative spectrogram (left), effect on DF” value (10 μM) was “slightly shifted towards a higher frequency”. The “representative spectrogram (right), effect” value (10 μM) was “extra peaks appearing to the left of the baseline DF”, the “wave fronts counted in representative spatio-temporal map (1 min)” value (10 μM, 26 before treatment) was 30 and the waveform period (10 μM, baseline 2.30±0.18, p<0.05, n=6) was 3.05 ± 0.68 s. For the same compound, the “number of groups of activation patterns” value (10 μM, baseline 9.3±0.7, p<0.05, n=6) was 6.9±1.0, the “percentage of dominant patterns (based on post-treatment data, FIG. 3E), first pattern” value (10 μM, baseline 17.2±11.5, p<0.05, n=5) was 32.3±13.2% and the percentage of brady-rhythms (10 μM, baseline 32.8±12.9, p<0.05, n=6) was 63.3±28.5%. The “percentage of dominant baseline activation patterns, first pattern” value (10 μM, baseline 35.7±8.4, p<0.05, n=5) was 19.2±16.4%, the “percentage of normal rhythms” value (10 μM, baseline 50.9±9.8, p<0.0001, n=6) was 9.2±10.9% and the “amplitude of slow waves” value (10 μM, baseline 229.6±115.9, p<0.05, n=6) was 149.1±56.7 μV. The slope of waveforms (10 μM, baseline 383.7±185.8, p<0.05, n=6) was 238.2±95.7 μV s^−1, the “DFA fluctuation function (larger scale 26-46)” value (100 μM, baseline 1.63±0.23, p<0.05, n=7) was 1.43±0.21 and the “DFA fluctuation function (smaller scale 3-25)” value (100 μM, baseline 2.35±0.12, p<0.05, n=7) was 2.25±0.05. The “percentage of dominant patterns (based on post-treatment data, FIG. 3E), third pattern” value (100 μM, baseline 17.8±7.4, p<0.05, n=4) was 6.8±6.1%, the “percentage of dominant baseline activation patterns, third pattern” value (100 μM, baseline 19.1±2.8, p<0.01, n=4) was 5.9±6.6% and the “percentage of dominant baseline activation patterns, second pattern” value (100 μM, baseline 23.5±2.8, p<0.001, n=4) was 5.7±5.1%. For the same compound, the “percentage of dominant baseline activation patterns, first pattern” value (100 μM, baseline 27.6±4.1, p<0.01, n=4) was 9.4±9.5%, the “dominant frequency (DF), change vs baseline” value (0.1-100 μM, p>0.05, n=6-7) was “No significant differences” and the “propagation velocities, effect” value (0.1-100 μM, p>0.05, n=6-7) was “did not affect”. The “average SampEn (larger scale 6-50), effect” value (0.1-100 μM, p>0.05, n=6-8) was “did not change”, the “average SampEn (smaller scale 1-5), effect” value (0.1-100 μM, p>0.05, n=6-8) was “did not change” and the “DFA fluctuation function (smaller scale 3-25)” value (1 M, baseline 2.29±0.23, p<0.05, n=8) was 2.19±0.20. For the same compound, the waveform period (1 M, baseline 2.53±0.50, p<0.05, n=7) was 3.10 ± 0.74 s and the “DFA fluctuation function (smaller scale 3-25)” value (10 M, baseline 2.24±0.32, p<0.05, n=8) was 2.13±0.34.
